Reference: patent US10456394B2, “Tetrahydroquinoline substituted hydroxamic acids as selective histone deacetylase 6 inhibitors” (THE BOARD OF TRUSTEES OF THE UNIVERSITY OF ILLINOIS, priority 2016, dated 2019)

What was measured:
traumatic brain injury = settings: following traumatic brain injury in rats; cited from earlier work
Human HDAC1 = Human HDAC1 (Homo sapiens (Human), UniProt Q13547); experiment: HDAC enzyme activity inhibition assay, HDAC1; assay type: biochemical; settings: Table 1; mean of two experiments ± standard deviation; 10-point assay from 30 μM, 3-fold serial dilution
Human HDAC6 = Human HDAC6 (Homo sapiens (Human), UniProt Q9UBN7); experiment: HDAC enzyme activity inhibition assay, HDAC6; assay type: biochemical; settings: Table 1; for IC50: mean of two experiments ± standard deviation, 10-point assay from 30 μM, 3-fold serial dilution; for Selectivity HDAC1/HDAC6: ratio of IC50 values
mice with colitis = settings: treatment begun once colitis had developed; cited from earlier work
[1] = system: symptomatic mutant HSPB1 mice; settings: cited from earlier work
HDAC11 = HDAC11 (Homo sapiens (Human), UniProt Q96DB2); experiment: HDAC enzyme activity inhibition assay, HDAC11; assay type: biochemical; settings: Table 2; mean of two experiments
HDAC3/NcoR2 complex = HDAC3/NcoR2 complex (Homo sapiens (Human), UniProt O15379); experiment: HDAC enzyme activity inhibition assay, HDAC3; assay type: biochemical; settings: Table 2; mean of two experiments
GBM6 cells = experiment: Growth inhibition of glioblastoma cell line GBM6; assay type: cell-based; settings: FIG. 4
HDAC2 = HDAC2 (Homo sapiens (Human), UniProt Q92769); experiment: HDAC enzyme activity inhibition assay, HDAC2; assay type: biochemical; settings: Table 2; mean of two experiments
HDAC8 = HDAC8 (Homo sapiens (Human), UniProt Q9BY41); experiment: HDAC enzyme activity inhibition assay, HDAC8; assay type: biochemical
HDAC4 = HDAC4 (Homo sapiens (Human), UniProt P56524); experiment: HDAC enzyme activity inhibition assay, HDAC4; assay type: biochemical; settings: Table 2; mean of two experiments
HDAC9 = HDAC9 (Homo sapiens (Human), UniProt Q9UKV0); experiment: HDAC enzyme activity inhibition assay, HDAC9; assay type: biochemical; settings: Table 2; mean of two experiments
HDAC10 = HDAC10 (Homo sapiens (Human), UniProt Q969S8); experiment: HDAC enzyme activity inhibition assay, HDAC10; assay type: biochemical; settings: Table 2; mean of two experiments
cardiac fibroblasts = experiment: Tubulin acetylation in adult rat cardiac fibroblasts; assay type: cell-based; settings: in comparison to the DMSO control (FIG. 2)
Procedure: The ability of the inhibitor to induce tubulin acetylation in cardiac fibroblasts was also determined and western blot is shown below.

HDAC7 = HDAC7 (Homo sapiens (Human), UniProt Q8WUI4); experiment: biochemical
HDAC5 = HDAC5 (Homo sapiens (Human), UniProt Q9UQL6); experiment: HDAC enzyme activity inhibition assay, HDAC5; assay type: biochemical; settings: Table 2; mean of two experiments

Sequence of Human HDAC1 (Q13547 whole entry): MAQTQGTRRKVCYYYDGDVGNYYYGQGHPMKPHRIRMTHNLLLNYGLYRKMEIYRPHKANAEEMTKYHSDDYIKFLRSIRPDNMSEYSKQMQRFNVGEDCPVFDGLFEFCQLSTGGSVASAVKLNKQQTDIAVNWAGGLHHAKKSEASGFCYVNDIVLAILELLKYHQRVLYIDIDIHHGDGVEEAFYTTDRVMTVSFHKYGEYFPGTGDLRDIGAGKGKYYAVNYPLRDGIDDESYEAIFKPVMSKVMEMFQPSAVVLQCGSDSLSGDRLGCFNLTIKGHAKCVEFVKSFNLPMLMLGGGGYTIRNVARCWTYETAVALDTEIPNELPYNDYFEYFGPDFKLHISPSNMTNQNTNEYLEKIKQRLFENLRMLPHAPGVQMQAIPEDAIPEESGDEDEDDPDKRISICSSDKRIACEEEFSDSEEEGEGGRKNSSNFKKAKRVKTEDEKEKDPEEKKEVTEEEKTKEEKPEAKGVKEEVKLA
Sequence of Human HDAC6 (Q9UBN7 whole entry): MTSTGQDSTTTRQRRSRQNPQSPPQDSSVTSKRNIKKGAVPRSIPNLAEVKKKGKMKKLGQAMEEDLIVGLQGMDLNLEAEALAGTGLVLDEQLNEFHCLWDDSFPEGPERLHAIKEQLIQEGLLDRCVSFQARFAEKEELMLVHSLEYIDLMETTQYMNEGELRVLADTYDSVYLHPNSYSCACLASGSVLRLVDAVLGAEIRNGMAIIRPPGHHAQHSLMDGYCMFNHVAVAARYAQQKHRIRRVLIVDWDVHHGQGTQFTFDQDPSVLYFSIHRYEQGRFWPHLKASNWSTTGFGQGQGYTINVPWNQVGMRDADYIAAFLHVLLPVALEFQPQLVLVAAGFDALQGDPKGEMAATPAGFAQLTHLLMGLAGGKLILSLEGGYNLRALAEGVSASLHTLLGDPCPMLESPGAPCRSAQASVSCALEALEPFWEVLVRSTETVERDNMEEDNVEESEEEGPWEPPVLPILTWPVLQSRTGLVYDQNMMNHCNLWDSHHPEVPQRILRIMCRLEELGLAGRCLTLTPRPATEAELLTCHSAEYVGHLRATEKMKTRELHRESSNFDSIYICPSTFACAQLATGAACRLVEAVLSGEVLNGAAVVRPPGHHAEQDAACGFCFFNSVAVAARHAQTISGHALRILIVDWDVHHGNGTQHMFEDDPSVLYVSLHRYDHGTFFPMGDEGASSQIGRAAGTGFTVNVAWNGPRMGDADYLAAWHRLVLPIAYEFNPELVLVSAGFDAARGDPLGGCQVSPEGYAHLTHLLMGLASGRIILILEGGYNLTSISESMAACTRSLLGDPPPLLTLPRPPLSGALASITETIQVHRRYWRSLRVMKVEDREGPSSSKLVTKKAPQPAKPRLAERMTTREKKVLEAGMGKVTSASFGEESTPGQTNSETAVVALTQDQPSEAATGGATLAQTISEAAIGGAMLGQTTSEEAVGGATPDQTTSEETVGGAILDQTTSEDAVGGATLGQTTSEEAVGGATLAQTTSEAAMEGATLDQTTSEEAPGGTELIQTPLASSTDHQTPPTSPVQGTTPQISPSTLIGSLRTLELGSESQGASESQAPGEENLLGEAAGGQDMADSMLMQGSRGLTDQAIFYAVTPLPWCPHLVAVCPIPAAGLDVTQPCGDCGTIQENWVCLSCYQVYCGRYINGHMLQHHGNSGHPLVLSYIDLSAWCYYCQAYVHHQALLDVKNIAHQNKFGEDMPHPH
Sequence of HDAC10 (Q969S8 whole entry): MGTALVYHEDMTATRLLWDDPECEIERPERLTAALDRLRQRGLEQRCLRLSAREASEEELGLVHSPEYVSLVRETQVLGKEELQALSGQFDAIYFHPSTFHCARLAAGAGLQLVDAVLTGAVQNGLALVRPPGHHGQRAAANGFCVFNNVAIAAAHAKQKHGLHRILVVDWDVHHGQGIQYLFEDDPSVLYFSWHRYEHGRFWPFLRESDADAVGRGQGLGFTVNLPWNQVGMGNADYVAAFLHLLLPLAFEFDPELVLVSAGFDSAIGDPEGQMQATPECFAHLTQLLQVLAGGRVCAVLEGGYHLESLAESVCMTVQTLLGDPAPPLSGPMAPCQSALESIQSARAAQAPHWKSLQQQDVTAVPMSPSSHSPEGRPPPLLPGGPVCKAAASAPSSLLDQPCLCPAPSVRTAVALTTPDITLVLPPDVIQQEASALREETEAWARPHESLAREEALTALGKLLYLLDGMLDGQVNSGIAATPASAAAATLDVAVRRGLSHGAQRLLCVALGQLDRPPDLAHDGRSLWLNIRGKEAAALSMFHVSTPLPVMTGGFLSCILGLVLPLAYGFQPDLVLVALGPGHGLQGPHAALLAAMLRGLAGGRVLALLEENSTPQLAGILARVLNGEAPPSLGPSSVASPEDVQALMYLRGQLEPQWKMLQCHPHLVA
Sequence of HDAC2 (Q92769 whole entry): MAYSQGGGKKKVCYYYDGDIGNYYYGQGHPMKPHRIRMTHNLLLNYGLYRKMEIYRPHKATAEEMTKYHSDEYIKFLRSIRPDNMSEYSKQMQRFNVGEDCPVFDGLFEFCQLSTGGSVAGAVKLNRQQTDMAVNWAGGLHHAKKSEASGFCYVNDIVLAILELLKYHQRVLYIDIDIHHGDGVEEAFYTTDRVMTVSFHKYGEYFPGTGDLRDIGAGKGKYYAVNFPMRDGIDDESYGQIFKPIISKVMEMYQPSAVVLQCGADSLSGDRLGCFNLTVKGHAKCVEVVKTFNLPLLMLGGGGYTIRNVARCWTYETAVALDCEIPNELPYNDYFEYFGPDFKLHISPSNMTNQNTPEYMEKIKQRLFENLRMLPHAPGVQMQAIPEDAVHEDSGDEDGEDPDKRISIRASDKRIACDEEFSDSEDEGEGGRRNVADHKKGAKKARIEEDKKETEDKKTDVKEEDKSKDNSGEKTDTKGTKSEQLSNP
Sequence of HDAC8 (Q9BY41 whole entry): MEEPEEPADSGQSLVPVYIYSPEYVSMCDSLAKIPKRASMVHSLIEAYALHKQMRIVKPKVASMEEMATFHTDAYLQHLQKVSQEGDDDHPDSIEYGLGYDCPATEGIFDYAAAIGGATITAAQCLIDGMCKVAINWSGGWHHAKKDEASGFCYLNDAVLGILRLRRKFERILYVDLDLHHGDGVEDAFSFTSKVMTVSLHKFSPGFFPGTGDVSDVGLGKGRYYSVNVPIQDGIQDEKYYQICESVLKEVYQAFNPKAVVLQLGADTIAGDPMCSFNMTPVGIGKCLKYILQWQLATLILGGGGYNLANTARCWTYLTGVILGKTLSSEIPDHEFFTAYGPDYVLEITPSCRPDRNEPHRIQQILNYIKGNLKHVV
Sequence of HDAC11 (Q96DB2 whole entry): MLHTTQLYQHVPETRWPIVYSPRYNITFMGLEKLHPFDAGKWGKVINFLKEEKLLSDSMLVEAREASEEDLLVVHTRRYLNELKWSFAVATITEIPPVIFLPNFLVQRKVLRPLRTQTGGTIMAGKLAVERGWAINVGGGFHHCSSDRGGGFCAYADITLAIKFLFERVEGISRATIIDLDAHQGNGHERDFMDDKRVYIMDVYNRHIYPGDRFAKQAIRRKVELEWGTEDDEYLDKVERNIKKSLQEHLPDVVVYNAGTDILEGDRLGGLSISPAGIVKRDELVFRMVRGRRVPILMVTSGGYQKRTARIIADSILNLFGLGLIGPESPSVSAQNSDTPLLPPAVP
Sequence of HDAC3/NcoR2 complex (O15379 whole entry): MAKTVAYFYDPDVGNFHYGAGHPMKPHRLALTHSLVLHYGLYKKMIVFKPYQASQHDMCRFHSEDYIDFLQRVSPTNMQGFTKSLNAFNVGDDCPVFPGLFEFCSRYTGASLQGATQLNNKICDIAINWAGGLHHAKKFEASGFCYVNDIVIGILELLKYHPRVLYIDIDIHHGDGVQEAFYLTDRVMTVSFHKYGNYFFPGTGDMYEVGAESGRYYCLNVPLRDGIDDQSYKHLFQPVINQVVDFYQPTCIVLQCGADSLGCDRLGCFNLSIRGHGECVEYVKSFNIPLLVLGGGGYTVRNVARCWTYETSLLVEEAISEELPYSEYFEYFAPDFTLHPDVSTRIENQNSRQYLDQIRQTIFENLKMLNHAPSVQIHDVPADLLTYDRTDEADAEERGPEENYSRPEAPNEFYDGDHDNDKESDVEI
Sequence of HDAC3/NcoR2 complex (Q9Y618 395-489 partner): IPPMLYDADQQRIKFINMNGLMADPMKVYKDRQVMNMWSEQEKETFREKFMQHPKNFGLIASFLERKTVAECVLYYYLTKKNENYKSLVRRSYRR

Structure (SMILES): CN(C)c1ccc(C(=O)NCCCCCNC(=O)CS)cc1 [DMA-PB, 4-dimethylamino-N-[5-(2-mercaptoacetylamino)pentyl]benzamide]
- histone H3 acetylation and microglia inflammatory response (traumatic brain injury): increase histone H3 acetylation and reduce microglia inflammatory response

Structure (SMILES): CC1(C)CCN(Cc2ccc(C(=O)NO)cc2)c2ccc(F)cc21 [Example 13, 4-((6-fluoro-4,4-dimethyl-3,4-dihydroquinolin-1(2H)-yl)methyl)-N-hydroxybenzamide]
- IC50 (Human HDAC1): 21100 ± 800 nM
- IC50 (Human HDAC6): 45.1 ± 0.05 nM
- Selectivity HDAC1/HDAC6 (Human HDAC6): 468

Structure (SMILES): O=C(NO)c1ccc(CN2CCCc3ccccc32)cc1 [Example 1, 4-((3,4-dihydroquinolin-1(2H)-yl)methyl)-N-hydroxybenzamide]
- IC50 (Human HDAC1): 11100 nM
- IC50 (Human HDAC6): 14.6 nM
- Selectivity HDAC1/HDAC6 (Human HDAC6): 760

Structure (SMILES): O=C(NO)c1ccc(Cn2c(=O)cnc3ccccc32)cc1 [Example 19, N-hydroxy-4-((2-oxoquinoxalin-1(2H)-yl)methyl)benzamide]
- IC50 (Human HDAC1): 1045 ± 5 nM
- IC50 (Human HDAC6): 1.2 ± 0.3 nM
- Selectivity HDAC1/HDAC6 (Human HDAC6): 870

Structure (SMILES): CC(c1ccc(C(=O)NO)cc1)N1CCCc2cc(Cl)ccc21 (centres unmarked) [Example 4, 4-(1-(6-chloro-3,4-dihydroquinolin-1(2H)-yl)ethyl)-N-hydroxybenzamide]
- IC50 (Human HDAC1): 8430 ± 30 nM
- IC50 (Human HDAC6): 382 ± 20.5 nM
- Selectivity HDAC1/HDAC6 (Human HDAC6): 22

Structure (SMILES): O=C(NO)c1ccc(CN2CCCc3cc(Cl)c(F)cc32)cc1 [Example 8, 4-((6-chloro-7-fluoro-3,4-dihydroquinolin-1(2H)-yl)methyl)-N-hydroxybenzamide]
- IC50 (Human HDAC1): 3220 ± 85 nM
- IC50 (Human HDAC6): 4.8 ± 0.78 nM
- Selectivity HDAC1/HDAC6 (Human HDAC6): 670

Structure (SMILES): O=C(NO)c1ccc(CN2CCCc3cc(Cl)c(Cl)cc32)cc1 [Example 6, 4-((6,7-dichloro-3,4-dihydroquinolin-1(2H)-yl)methyl)-N-hydroxybenzamide]
- IC50 (Human HDAC1): 2620 ± 115 nM
- IC50 (Human HDAC6): 3.59 ± 0.1 nM
- Selectivity HDAC1/HDAC6 (Human HDAC6): 728

Structure (SMILES): O=C(NO)c1ccc(CN2CCCc3cc(F)ccc32)cc1 [Example 5, 4-((6-fluoro-3,4-dihydroquinolin-1(2H)-yl)methyl)-N-hydroxybenzamide]
- IC50 (Human HDAC1): 5235 ± 45 nM
- IC50 (Human HDAC6): 5.05 ± 0.23 nM
- Selectivity HDAC1/HDAC6 (Human HDAC6): 1037

Structure (SMILES): O=C(NO)c1ccc(CN2CCCc3cc(Cl)ccc32)c(F)c1 [Example 3, 4-((6-chloro-3,4-dihydroquinolin-1(2H)-yl)methyl)-3-fluoro-N-hydroxybenzamide]
- IC50 (Human HDAC1): 21200 ± 1150 nM
- IC50 (Human HDAC6): 12.4 ± 5.5 nM
- Selectivity HDAC1/HDAC6 (Human HDAC6): 1706

Structure (SMILES): O=C(NO)c1ccc(CN2CCCc3cc(F)c(Cl)cc32)cc1 [Example 7, 4-((7-chloro-6-fluoro-3,4-dihydroquinolin-1(2H)-yl)methyl)-N-hydroxybenzamide]
- IC50 (Human HDAC1): 1865 ± 5 nM
- IC50 (Human HDAC6): 3.43 ± 0.27 nM
- Selectivity HDAC1/HDAC6 (Human HDAC6): 544

Structure (SMILES): O=C(NO)c1ccc(CN2CCNc3ccccc32)cc1 [Example 14, 4-((3,4-dihydroquinoxalin-1(2H)-yl)methyl)-N-hydroxybenzamide]
- IC50 (Human HDAC1): 8750 ± 1070 nM
- IC50 (Human HDAC6): 2.9 ± 0.4 nM
- Selectivity HDAC1/HDAC6 (Human HDAC6): 3017

Structure (SMILES): CC1(C)CCc2cc(Cl)ccc2N1Cc1ccc(C(=O)NO)cc1 [Example 9, 4-((6-chloro-2,2-dimethyl-3,4-dihydroquinolin-1(2H)-yl)methyl)-N-hydroxybenzamide]
- IC50 (Human HDAC1): 19600 ± 2450 nM
- IC50 (Human HDAC6): 328 ± 15.5 nM
- Selectivity HDAC1/HDAC6 (Human HDAC6): 60

Structure (SMILES): O=C(NO)c1ccc(CN2CC[S+]([O-])c3ccccc32)cc1 (centres unmarked) [Example 17, N-hydroxy-4-((1-oxido-2,3-dihydro-4H-benzo[b][1,4]thiazin-4-yl)methyl)benzamide]
- IC50 (Human HDAC1): 2600 ± 30 nM
- IC50 (Human HDAC6): 2 ± 0.1 nM
- Selectivity HDAC1/HDAC6 (Human HDAC6): 1300

Structure (SMILES): CC1(C)CCc2cc(F)ccc2N1Cc1ccc(C(=O)NO)cc1 [Example 10, 4-((6-fluoro-2,2-dimethyl-3,4-dihydroquinolin-1(2H)-yl)methyl)-N-hydroxybenzamide]
- IC50 (Human HDAC1): 14100 ± 1900 nM
- IC50 (Human HDAC6): 161 ± 3 nM
- Selectivity HDAC1/HDAC6 (Human HDAC6): 88

Structure (SMILES): O=C(CCCCCCC(=O)Nc1ccc([C@H]2O[C@@H](CSc3nc(-c4ccccc4)c(-c4ccccc4)o3)C[C@@H](c3ccc(CO)cc3)O2)cc1)NO [tubacin]
- rescue of mice with colitis (mice with colitis): able to rescue mice

Structure (SMILES): CN1CCc2c(c3ccccc3n2Cc2ccc(C(=O)NO)cc2)C1 [Tubastatin A]
- axonal transport defects and CMT phenotype [1]: corrects the axonal transport defects induced by HSPB1 mutations and rescues the CMT phenotype

Structure (SMILES): O=C(NO)c1ccc(CN2CCCc3cc(Cl)ccc32)cc1 [Example 2, 4-((6-chloro-3,4-dihydroquinolin-1(2H)-yl)methyl)-N-hydroxybenzamide]
- IC50 (HDAC11): 746 nM
- IC50 (HDAC3/NcoR2 complex): > 30000 nM
- growth of glioblastoma cell line (GBM6) (GBM6 cells): inhibit the growth
- IC50 (HDAC2): > 30000 nM
- IC50 (HDAC8): 3340 nM
- IC50 (HDAC4): 11000 nM
- IC50 (HDAC9): 3460 nM
- IC50 (HDAC10): > 30000 nM
- tubulin acetylation (cardiac fibroblasts): robust tubulin acetylation
- IC50 (HDAC7): 4060 nM
- IC50 (HDAC5): 4550 nM

Structure (SMILES): CC1(C)CC(=O)N(Cc2ccc(C(=O)NO)cc2)c2ccc(Cl)cc21 [Example 11, 4-((6-chloro-4,4-dimethyl-2-oxo-3,4-dihydroquinolin-1(2H)-yl)methyl)-N-hydroxybenzamide]
- IC50 (Human HDAC1): 6500 ± 230 nM
- IC50 (Human HDAC6): 28.9 ± 1.1 nM
- Selectivity HDAC1/HDAC6 (Human HDAC6): 225

Structure (SMILES): O=C(NO)c1ccc(CN2CCSc3ccccc32)cc1 [Example 16, 4-((2,3-dihydro-4H-benzo[b][1,4]thiazin-4-yl)methyl)-N-hydroxybenzamide]
- IC50 (Human HDAC1): 7935 ± 25 nM
- IC50 (Human HDAC6): 6.1 ± 0.1 nM
- Selectivity HDAC1/HDAC6 (Human HDAC6): 1300

Structure (SMILES): CC(C)(C)OC(=O)N1CC(=O)N(Cc2ccc(C(=O)NO)cc2)c2ccccc21 [Example 18, tert-butyl 4-(4-(hydroxycarbamoyl)benzyl)-3-oxo-3,4-dihydroquinoxaline-1(2H)-carboxylate]
- IC50 (Human HDAC1): 22000 ± 1550 nM
- IC50 (Human HDAC6): 33.6 ± 1.9 nM
- Selectivity HDAC1/HDAC6 (Human HDAC6): 653

Structure (SMILES): O=C(NO)c1ccc(CN2CCN(CC3CC3)c3ccccc32)cc1 [Example 15, 4-((4-(cyclopropylmethyl)-3,4-dihydroquinoxalin-1(2H)-yl)methyl)-N-hydroxybenzamide]
- IC50 (Human HDAC1): 6690 ± 270 nM
- IC50 (Human HDAC6): 39.3 ± 0.3 nM
- Selectivity HDAC1/HDAC6 (Human HDAC6): 170

Structure (SMILES): CC1(C)CCN(Cc2ccc(C(=O)NO)cc2)c2ccc(Cl)cc21 [Example 12, 4-((6-chloro-4,4-dimethyl-3,4-dihydroquinolin-1(2H)-yl)methyl)-N-hydroxybenzamide]
- IC50 (Human HDAC1): 19500 ± 700 nM
- IC50 (Human HDAC6): 37.8 ± 4.8 nM
- Selectivity HDAC1/HDAC6 (Human HDAC6): 516
